# Test results published in patent US6906205B2, “Spiro and dispiro 1,2,4-trioxolane antimalarials” (Medicines for Malaria Venture MMV, priority 2002, dated 2005).
# System: P. falciparum NF54 strain (sensitive to standard antimalarials)
# Experiment: semiautomated microdilution assay, [3H]-hypoxanthine incorporation, NF54 strain
# Assay type: cell-based, Plasmodium falciparum
# Conditions: NF54 strain, 72 h incubation
# Summary of the method: (§1)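 Logit regression analysis was used to estimate IC50 values. Parasites were intraerythrocytic forms from asynchronous stock cultures, and compounds were tested by semiautomated microdilution.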
row,SMILES,IC50 (ng/ml) NF54
1,O=C(C[C@H]1CC[C@]2(CC1)OO[C@]1(O2)C2CC3CC(C2)CC1C3)N1CCC(O)CC1 [OZ297],0.76 ng/mL
2,COC(=O)C1(c2ccccc2)CCC2(CC1)OOC1(O2)C2CC3CC(C2)CC1C3 (stereo not drawn) [OZ98],0.9 ng/mL
3,CN(C)S(=O)(=O)N1CCC2(CC1)OOC1(O2)C2CC3CC(C2)CC1C3 (stereo not drawn) [OZ190],1.0 ng/mL
4,c1csc(NC[C@H]2CC[C@]3(CC2)OOC2(O3)C3CC4CC(C3)CC2C4)n1 (stereo partly drawn) [OZ252],2.2 ng/mL
5,O=C1c2ccccc2C(=O)N1N=C1CCC2(CC1)OOC1(O2)C2CC3CC(C2)CC1C3 (stereo not drawn) [OZ38],1.3 ng/mL
6,Cc1ccc(S(=O)(=O)N2CCC3(CC2)OOC2(O3)C3CC4CC(C3)CC2C4)cc1 (stereo not drawn) [OZ51],2.5/2.5 ng/ml

# System: P. falciparum K1 strain (Thailand resistant to chloroquine)
# Experiment: semiautomated microdilution assay, [3H]-hypoxanthine incorporation, K1 strain
# Assay type: cell-based, Plasmodium falciparum
# Conditions: K1 strain, 72 h incubation
# Summary of the method: as §1
row,SMILES,IC50 (ng/ml) K1
1,O=C(C[C@H]1CC[C@]2(CC1)OO[C@]1(O2)C2CC3CC(C2)CC1C3)N1CCC(O)CC1 [OZ297],0.49 ng/mL
2,COC(=O)C1(c2ccccc2)CCC2(CC1)OOC1(O2)C2CC3CC(C2)CC1C3 (stereo not drawn) [OZ98],2.3 ng/mL
3,CN(C)S(=O)(=O)N1CCC2(CC1)OOC1(O2)C2CC3CC(C2)CC1C3 (stereo not drawn) [OZ190],0.16 ng/mL
4,c1csc(NC[C@H]2CC[C@]3(CC2)OOC2(O3)C3CC4CC(C3)CC2C4)n1 (stereo partly drawn) [OZ252],2.3 ng/mL
5,O=C1c2ccccc2C(=O)N1N=C1CCC2(CC1)OOC1(O2)C2CC3CC(C2)CC1C3 (stereo not drawn) [OZ38],0.86 ng/mL
6,Cc1ccc(S(=O)(=O)N2CCC3(CC2)OOC2(O3)C3CC4CC(C3)CC2C4)cc1 (stereo not drawn) [OZ51],2.5/2.5 ng/ml

# System: ANKA strain of P. berghei
# Experiment: single dose STI in vivo screen in infected mice
# Design: species or system Plasmodium berghei
# Conditions: percent reduction in parasitemia day 3 post-infection; single 3 mg/kg po in SSV
# Summary of the method: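 Groups of 3-5 Moro SPF or NMRI mice infected with the ANKA strain of P. berghei received a single dose of trioxolane on day one post-infection. The compound was given in 3% ethanol and 7% Tween 80 or in SSV (0.5% w/v CMC, 0.5% v/v benzyl alcohol, 0.4% v/v Tween 80, 0.9% w/v sodium chloride in water). Antimalarial activity was scored as percent reduction in parasitemia on day three and as survival time versus untreated controls. Survival to day 30 counted as cure.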
row,SMILES,Activity (%) 3 mg/kg SSV po
1,O=C(C[C@H]1CC[C@]2(CC1)OO[C@]1(O2)C2CC3CC(C2)CC1C3)N1CCC(O)CC1 [OZ297],83%

# Same assay, conditions: percent reduction in parasitemia day 3 post-infection; single 10 mg/kg po in 3% ethanol and 7% Tween 80; mice
row,SMILES,Activity (%) po
1,COC(=O)C1(c2ccccc2)CCC2(CC1)OOC1(O2)C2CC3CC(C2)CC1C3 (stereo not drawn) [OZ98],72%
2,CN(C)S(=O)(=O)N1CCC2(CC1)OOC1(O2)C2CC3CC(C2)CC1C3 (stereo not drawn) [OZ190],98%
3,c1csc(NC[C@H]2CC[C@]3(CC2)OOC2(O3)C3CC4CC(C3)CC2C4)n1 (stereo partly drawn) [OZ252],98.91%
4,O=C1c2ccccc2C(=O)N1N=C1CCC2(CC1)OOC1(O2)C2CC3CC(C2)CC1C3 (stereo not drawn) [OZ38],83%
5,Cc1ccc(S(=O)(=O)N2CCC3(CC2)OOC2(O3)C3CC4CC(C3)CC2C4)cc1 (stereo not drawn) [OZ51],89%

# Same assay, conditions: percent reduction in parasitemia day 3 post-infection; single 10 mg/kg sc in 3% ethanol and 7% Tween 80; mice
row,SMILES,Activity (%) sc
1,COC(=O)C1(c2ccccc2)CCC2(CC1)OOC1(O2)C2CC3CC(C2)CC1C3 (stereo not drawn) [OZ98],77%
2,CN(C)S(=O)(=O)N1CCC2(CC1)OOC1(O2)C2CC3CC(C2)CC1C3 (stereo not drawn) [OZ190],2%
3,c1csc(NC[C@H]2CC[C@]3(CC2)OOC2(O3)C3CC4CC(C3)CC2C4)n1 (stereo partly drawn) [OZ252],99.82%
4,O=C1c2ccccc2C(=O)N1N=C1CCC2(CC1)OOC1(O2)C2CC3CC(C2)CC1C3 (stereo not drawn) [OZ38],99.98%
5,Cc1ccc(S(=O)(=O)N2CCC3(CC2)OOC2(O3)C3CC4CC(C3)CC2C4)cc1 (stereo not drawn) [OZ51],100%

# Same assay, conditions: percent reduction in parasitemia day 3 post-infection; single po dose in standard suspending vehicle (SSV); mice
row,SMILES,Activity (%) SSVpo
1,COC(=O)C1(c2ccccc2)CCC2(CC1)OOC1(O2)C2CC3CC(C2)CC1C3 (stereo not drawn) [OZ98],11%
2,CN(C)S(=O)(=O)N1CCC2(CC1)OOC1(O2)C2CC3CC(C2)CC1C3 (stereo not drawn) [OZ190],78%
3,c1csc(NC[C@H]2CC[C@]3(CC2)OOC2(O3)C3CC4CC(C3)CC2C4)n1 (stereo partly drawn) [OZ252],99.49%
4,O=C1c2ccccc2C(=O)N1N=C1CCC2(CC1)OOC1(O2)C2CC3CC(C2)CC1C3 (stereo not drawn) [OZ38],15%

# Same assay, conditions: single 10 mg/kg po in 3% ethanol and 7% Tween 80; untreated control 5.6 ± 0.3
row,SMILES,Survival (days) po
1,COC(=O)C1(c2ccccc2)CCC2(CC1)OOC1(O2)C2CC3CC(C2)CC1C3 (stereo not drawn) [OZ98],6.3 days
2,CN(C)S(=O)(=O)N1CCC2(CC1)OOC1(O2)C2CC3CC(C2)CC1C3 (stereo not drawn) [OZ190],8.7 days
3,c1csc(NC[C@H]2CC[C@]3(CC2)OOC2(O3)C3CC4CC(C3)CC2C4)n1 (stereo partly drawn) [OZ252],8.3 days
4,O=C1c2ccccc2C(=O)N1N=C1CCC2(CC1)OOC1(O2)C2CC3CC(C2)CC1C3 (stereo not drawn) [OZ38],6.7 days
5,Cc1ccc(S(=O)(=O)N2CCC3(CC2)OOC2(O3)C3CC4CC(C3)CC2C4)cc1 (stereo not drawn) [OZ51],7.0 days

# Same assay, conditions: single 10 mg/kg po in SSV
row,SMILES,Survival (days) 10 mg/kg SSV po
1,O=C(C[C@H]1CC[C@]2(CC1)OO[C@]1(O2)C2CC3CC(C2)CC1C3)N1CCC(O)CC1 [OZ297],9.8 days

# Same assay, conditions: single 10 mg/kg sc in 3% ethanol and 7% Tween 80; untreated control 5.6 ± 0.3
row,SMILES,Survival (days) sc
1,COC(=O)C1(c2ccccc2)CCC2(CC1)OOC1(O2)C2CC3CC(C2)CC1C3 (stereo not drawn) [OZ98],7.3 days
2,CN(C)S(=O)(=O)N1CCC2(CC1)OOC1(O2)C2CC3CC(C2)CC1C3 (stereo not drawn) [OZ190],5.7 days
3,c1csc(NC[C@H]2CC[C@]3(CC2)OOC2(O3)C3CC4CC(C3)CC2C4)n1 (stereo partly drawn) [OZ252],9.3 days
4,O=C1c2ccccc2C(=O)N1N=C1CCC2(CC1)OOC1(O2)C2CC3CC(C2)CC1C3 (stereo not drawn) [OZ38],25.3 days
5,Cc1ccc(S(=O)(=O)N2CCC3(CC2)OOC2(O3)C3CC4CC(C3)CC2C4)cc1 (stereo not drawn) [OZ51],14 days

# Same assay, conditions: single po dose in SSV; untreated control 5.6 ± 0.3
row,SMILES,Survival (days) SSVpo
1,COC(=O)C1(c2ccccc2)CCC2(CC1)OOC1(O2)C2CC3CC(C2)CC1C3 (stereo not drawn) [OZ98],5.3 days
2,CN(C)S(=O)(=O)N1CCC2(CC1)OOC1(O2)C2CC3CC(C2)CC1C3 (stereo not drawn) [OZ190],7.7 days
3,c1csc(NC[C@H]2CC[C@]3(CC2)OOC2(O3)C3CC4CC(C3)CC2C4)n1 (stereo partly drawn) [OZ252],9.0 days
4,O=C1c2ccccc2C(=O)N1N=C1CCC2(CC1)OOC1(O2)C2CC3CC(C2)CC1C3 (stereo not drawn) [OZ38],5.0 days
